# Several values for one entry are separate records, joined by “and”; a condition that tells them apart may be missing. Equal entries are not always repeated. Structures can show the parent of a compound that is named as a salt. Where two headings read alike, the source gives them in different places.
# Columns and labels:
# [1] = tested on: human blood-plaques (aggregation with D.P.A.); test: Inhibition of blood-plaque aggregation induced by D.P.A.; assay type: cell-based; conditions: for Ratio of a (X) to a (R), D.P.A. (head drawn): X 2.5×10^-5 g/ml, R 5×10^-4 g/ml; for inhibition at 25 µg/mL: Homo sapiens, C (X)=2.5×10^-5 g/ml, read-out: Inhibitory activity of the blood-plaque aggregation, D.P.A., a (X)
# Text: (§1) The blood plaques used for these studies were human blood-plaques introduced into the test in the form of blood-plaque rich plasmas (B.P.R.P.).
# (§2) These latter were obtained as water-repellent material by slow centrifugation from human blood samples.
# (§3) The study of blood-plaque aggregation was made by means of an aggregate-meter with continuous agitation and graphic recording according to the conventional method. (PROST R. S., SOUVERAIN C. H., DOUMENC J., Etude de l'agregation plaquettaire a l'aide de l'agregametre de MUSTARD-Coagulation, 1971, 4, 2, 145-151).
# (§4) The agents employed for inducing aggregation were diphosphoric adenosine acid (D.P.A.), 1-(3',4'-di-hydroxyphenyl)-2-methylamino ethanol (adrenaline) and collagene. All these reactants were prepared from mother solutions diluted in a Michaelis' buffer. Their concentration in the test may vary according to the affinity of the blood-plaques.
# (§5) An optimum concentration is thus sought by successive tests on the same B.P.R.P.
# (§6) The inhibitory activity on the aggregation was evaluated by addition of the product under study to the B.P.R.P. before introduction of the aggregating agent.
# (§7) The concentrations of compounds of formula I (X) in the B.P.R.P. are: C (X)=2.5×10^-5 g/ml for aggregation with D.P.A. and adrenaline, and C (X)=2×10^-5 g/ml for collagene.
# (§8) The reference product (R) is 2,6-bis (diethanolamino)-4,8-dipiperidinopyrimido[5,4-d]pyramidine (known under the trademark "Dipyridamole") used in the concentration C (R)=5×10^-4 g/ml for aggregation with D.P.A. and adrenaline and C (R)=2×10^-4 g/ml for aggregation with collagene.
# (§9) The following table IV indicates the activity of some compounds of formula I: a (X) the activity of the reference product: a (R) and the different values of the ratio: [formula]
# [2] = tested on: human blood-plaques (aggregation with collagene); test: Inhibition of blood-plaque aggregation induced by collagene; assay type: cell-based; conditions: for Ratio of a (X) to a (R), COLLAGENE (head drawn): X 2×10^-5 g/ml, R 2×10^-4 g/ml; for inhibition at 20 µg/mL: Homo sapiens, read-out: Inhibitory activity of the blood-plaque aggregation, COLLAGENE, a (X)
# Text: as §1, §2, §3, §4, §5, §6, §7, §8, §9
# [3] = tested on: phenylparaquinone (P.P.Q.) painful syndrome in a mouse; test: Analgesic and anti-inflammatory activity, phenylparaquinone (P.P.Q.) painful syndrome; assay type: in vivo; conditions: for Analgesic and anti-inflammatory activity, percentage activity a(X): 50 mg/kg digestively, crises between 10 and 15 minutes; for a(X) / a(R), analgesic and anti-inflammatory activity: X 50 mg/kg, R (Galfenine) 25 mg/kg
# Method: The intraperitoneal injection of phenylparaquinone (P.P.Q.) in a mouse causes the appearance of a painful syndrome appearing within 5 minutes of the injection and disappearing after about 30 minutes (SIEGMUND E. A., CADMUS A., LU G., J. Pharmacol. Exp. Therap. 1957, 119, 453). This painful syndrome manifests itself in the animal by a series of characteristic crises, more or less close together and fleeting, during which we can note a twisting or stretching of the body, a hollowing of the sides and a stretching of the hind legs.
# It is therefore possible to note the number of crises in a given interval of time.
# The preventive administration of analgesic or anti-inflammatory substances prevents the appearance of crises or reduces the frequency thereof.
# The reference substance (R) used in the tests was the ester of N-(7-chloro-4 quinolyl) anthranilic acid and 2,3-dihydroxy n.propanol (known under the trademark Galfenine).
# It was administered orally with a dose of 25 mg/kg.
# The compounds of formula I (X) were administered digestively with a dose of 50 mg/kg.
# The interval of time (t) which was chosen to evaluate the analgesic activity was between 10 and 15 minutes which is the period of maximum frequency of the crises. This activity was expressed in the following way:
# n: number of crises observed in the control mice;
# n': number of crises observed in mice previously treated with the reference substance (R);
# n": number of crises observed in mice having received the substance (X).
# The percentage activity of R is equal to [formula]
# The percentage activity of X is equal to [formula]
# The activity of X in relation to that of R is estimated by the ratio [formula]
# For example: a compound X for which [formula] is 0.5 has an activity equal to half that of the reference product.
# [4] = tested on: human blood-plaques (aggregation with adrenaline); test: Inhibition of blood-plaque aggregation induced by adrenaline; assay type: cell-based; conditions: for inhibition at 25 µg/mL: Homo sapiens, C (X)=2.5×10^-5 g/ml, read-out: Inhibitory activity of the blood-plaque aggregation, ADRENALINE, a (X); for Ratio of a (X) to a (R), ADRENALINE (head drawn): X 2.5×10^-5 g/ml, R 5×10^-4 g/ml
# Text: as §1, §2, §3, §4, §5, §6, §7, §8, §9
# [5] = Acute toxicity, oral, mouse (LD 50, Miller and Tainter); assay type: in vivo; conditions: in vivo, death rate checked for seven days, read-out: 50% lethal dose (LD 50) (converted)
# Method: The acute toxicity of the compounds of formula (I) were evaluated orally (esophagean probe) on a mouse deprived of food 18 hours before the beginning of the test. The products were placed in suspension in a solution of dilute carboxymethyl cellulose. Calculation of the 50 lethal dose (LD 50) was effected according to the method of Miller and Tainter (Miller L. C., Tainter M. L., Proc. Soc. Exptl. Biol. Med. 1944, 57, 261-264).
# The death rate was checked for seven days following the treatment.
# Table III gives the 50% lethal doses (LD 50) in milligrammes per kilogramme body weight.
# [6] = tested on: isolated heart of a gumea-pig; test: Vaso-dilatatory activity, coronary flow of isolated perfused heart; conditions: for activation at 10 µg/mL: Locke, 37° C., read-out: Percentage flow increase P (X); for P (X) / P (R): relative to Dipyridamole, both 1×10^-5 g/ml
# Method: The coronary flow is recorded, by means of an electronic device fitted with a Fleish totaliser, before and after addition of the substance X under study (concentration: 1×10^-5 g/ml), the reference product (R) being 2,6-bis (diethanolamino) 4,8-dipiperidinopyrimido[5,4-d]pyrimidine (known under the trademark "Dipyridamole") used at a concentration of 1×10^-5 g/ml.
# The percentage flow increase P was calculated at the climax of the activity of X or R.
# rat's isolated duodenum = test: Spasmolytic activity on isolated duodenum contracted by barium chloride (Magnus); conditions: for IC50: Rattus norvegicus, barium chloride contraction, Tyrode, 38° C., read-out: Spasmolytic activity ED 50 (X); for ED 50 (R) / ED 50 (X): relative to papaverine hydrochloride
# Method: The spasmolytic activity was studied on a rat's isolated duodenum maintained in a survival medium of an aerated Tyrode solution heated to 38° C. according to the technique of Magnus (Magnus R.-Archivs ges. Physiol., 1905, 180, 1-71).
# The contracting agent used was barium chloride, the reference antogonist agent being papaverine hydrochloride (R). The average activity of the compounds of formula I (X) in comparison with that of the reference agent was expressed by calculating the ratio of the 50 efficient doses (ED 50) determined graphically on logarithmic paper: [formula]
# For example: a substance having a relative activity expressed by the FIG. 2 presents an activity equal to twice that of papaverine hydrochloride.
# [7] = 1×10^-5 g/ml, coronary flow at climax of activity
# [8] = reference product, C (R)=5×10^-4 g/ml
SMILES,"Ratio of a (X) to a (R), D.P.A. (head drawn) [1]",inhibition at 25 µg/mL [1],"Inhibitory activity of the blood-plaque aggregation, COLLAGENE, a (X) ([2]; C (X)=2×10^-5 g/ml)","Ratio of a (X) to a (R), COLLAGENE (head drawn) [2]","Analgesic and anti-inflammatory activity, percentage activity a(X) [3]","a(X) / a(R), analgesic and anti-inflammatory activity [3]",inhibition at 25 µg/mL [4],"Ratio of a (X) to a (R), ADRENALINE (head drawn) [4]",LD50 at 168 h ([5]; po),"activation at 10 µg/mL [6, 7]",P (X) / P (R) [6],inhibition at 20 µg/mL ([2]; C (X)=2×10^-5 g/ml),IC50 (rat's isolated duodenum),ED 50 (R) / ED 50 (X) (rat's isolated duodenum),"Inhibitory activity of the blood-plaque aggregation, ADRENALINE, a (R) [4, 8]","Inhibitory activity of the blood-plaque aggregation, D.P.A., a (R) [1, 8]",LD50 at 168 h [5],"Percentage flow increase P (R) ([6]; reference product, 1×10^-5 g/ml, coronary flow at climax of activity)","Inhibitory activity of the blood-plaque aggregation, COLLAGENE, a (R) ([2]; reference product, C (R)=2×10^-4 g/ml)"
O=C(CCCN1CCOCC1)c1cc2ccccc2s1 [Compound 6],1.7×10^-1,15%,32%,3.5×10^-1,55%,7 × 10^-1,,,,,,,,,,,,,
CCCN(CCC)CCCC(=O)c1csc2ccccc12 [Compound 11],1.8×10^-1,10%,,3.3×10^-1,48%,6.5 × 10^-1,51%,5.8×10^-1,1100 mg/kg,41%,7.75 × 10^-1,12%,1.05 µg/mL,6.2,,,,,
CN(C)CCCC(=O)c1cc2ccccc2s1 [Compound 4],,,,4.5×10^-1,,,78%,1,950 mg/kg,,,39%,,,,,,,
"OCCN(CCO)c1nc(N2CCCCC2)c2nc(N(CCO)CCO)nc(N3CCCCC3)c2n1 [Dipyridamole, 2,6-bis (diethanolamino)-4,8-dipiperidinopyrimido[5,4-d]pyramidine, reference compound]",,,,,,,,,,,,,,,91% and 78% and 86% and 88% and 77%,87% and 53% and 79% and 55% and 85%,2150 mg/kg,43% and 53% and 71%,36%
"C=CCN(CC=C)CCCC(=O)c1cc2ccccc2s1 [Compound 3, 1-(benzothien-2'-yl)-4-N,N-diallylamino butanone oxalate]",1.7×10^-1,15%,,1.95×10^-1,,,,,,,,13%,1.2 µg/mL,2.08,,,,,
CC(C)N(CCCC(=O)c1csc2ccccc12)C(C)C [Compound 12],,29%,,2.3×10^-1,68%,1.5,80%,9.1×10^-1,500 mg/kg,33%,6.25 × 10^-1,12%,1.35 µg/mL,4.8,,,,,
